In US6632921B1, “Seryl-lysyl-based peptide and peptidomimetic inhibitors of N-myristoyl transferase as anti-infective agents” (G. D Searle & Co, priority 1995, dated 2003):
Like-named read-outs stand apart in the source and are kept apart here.

What was measured:
[1] = system: Candida albicans, strain B311; assay: Antifungal susceptibility testing, microdilution broth, pH 5.4/30° C./YNB; format: cell-based; conditions: B311, 24 h
Protocol: Antifungal Screens were set up initially against Candida albicans, strain B311, and Cryotococcus neoformans, strain L210425. Both pathogens, (originally from the stock culture collection, Medical mycology research center, Washington university-Barnes hospital), were obtained from Dr.Kobayashi, Prof.of infectious diseases, Washington University, St.Louis, Mo.
All cultures are maintained at 30° C. on Sabouraud's dextrose agar slants and subcultured at monthly intervals to fresh medium. All inocula for susceptibility testing are prepared in yeast nitogen base(YNB, Difco) broth.
A loopful of growth from Sabouraud dextrose agar slant is inoculated into 4 ml of YNB broth media and incubated at 30° C. overnight (18-24 hrs) with constant agitation (Gyratory Shaker, New Brunswick Scientific). Prior to setting up susceptibility testing, the organisms are counted in a hemocytometer, and diluted as needed into assay media.
1) (Assay at DH 5.4/30° C. Incubation/YNB Media).
Antifungal assays were carried out initially by a modification of the method published by Jones, et. al; (1), and communicated to Searle by Dr. Kobayashi, Washington University. [R. N. Jones et al, Manual of Clinical Microbiology, 4th ed., (1985)]
The antifungal susceptibility testing consists of a microdilution broth procedure performed in 96 well microtiter plates (Costar, cat#3799). Briefly, test compounds from a 20 mM stock solution in DMSO are diluted into sterile, deionized water (final DMSO concentration not exceeding 1%), to yield 2× the desired concentration (100 uM, 10 uM and 1 uM for an initial screen, or a selected concentration range in serial 2 fold dilutions for EC50 determination). One hundred microliters (100 ul) of each concentration is dispensed into triplicate wells of a 96 well microtiter plate. Appropriate dilutions of a suspension of C.albicans (1×10^6 cells/ml) in 2× YNB is distributed into each of the wells, including growth control wells containing no test compound as well as control wells with 0.5% DMSO. Amphotericin B at 0.05, 1 and 5 ug/ml is included in each assay plate as a positive control. The plates are incubated at 30° C. and cell growth is scored by reading the absorbance at 590 nm on an Elisa plate reader(Dynatech, MR.5000).

[2] = system: C. albicans Arf N-myristoylation; assay: Gel shift assay for degree of N-myristoylation of Arf in C. albicans cultures; format: cell-based, Candida albicans; conditions: 200 μM, 24° C., strain MONCA105; for reduction in Arf N-myristoylation: 2 h
Source text: N-myristoylation of C. albicans ADP ribosylation factor (Arf), produces a change in its electrophoretic mobility during SDS-polyacrylamide gel electrophoresis. The acylated species migrates more rapidly than the nonmyristoylated species [J. K. Lodge et al, J. Biol. Chem., 269, 2996-3009 (1994)].
Based on these findings, acylation of C. albicans Arf, measured using this protein gel shift assay, was used to define the effects of peptide analog inhibitors of C. albicans NMT on the efficiency of protein N-myristoylation in cultures of this fungal pathogen.
The assay was performed as follows. A single colony of Candida albicans strain MONCA105 NMT, [R. A Weinberg et al, Mol. Micro., in press, (1995)] was innoculated into YPD medium (YPD=1% yeast extract, 2% peptone, 2% dextrose). Cultures were shaken at 24° C. for 12-16 h. Cells were recovered by centrifugation, washed 3 times with sterile PBS, pH 7.4 and resuspended in YPD at an OD600 of 1.0-1.5. Fifty microliters of a 20 mM stock solution of peptide analog (prepared in sterile deionized H2O) were added to a sterile polypropylene tube containing 4.5 mL of fresh YPD medium. Five hundred microliters of the C. albicans culture was then added to the tubes. Controls consisted of no added peptide analog (i.e. water alone).The tubes were incubated at 24° C. with vigorous shaking for 2 hr or 4 hr. For each experiment, duplicate tubes were assayed for each condition and at each time point. Cells were recovered by centrifugation, resuspended in 200 μL of Lysis Buffer (0.125M Tris-HCl, pH 6.8/4% SDS), and transferred to microfuge tubes containing 200 μL of glass beads (bead diameter=425-600 μm, Sigma).The slurry was vortexed 3 times for 1 min each. Between each cycle of vortexing, the tubes were placed on ice for 1 min. The mixture was then placed in a boiling water bath for 10 min, vortexed once again for 1 min and subsequently spun at 10,000×g for 2 min. The cleared supernatant fraction was removed, spun again at 10,000×g for 5 min and the total protein concentration determined. […]

[3] = pH 5.4, read-out: ACTIVITY (EC50) C.alb (B311)

Row | SMILES | EC50 [1, 3] [µM] | EC50 ([1]; pH 5.4, read-out: caEC50 24 hours) [µM] | reduction in Arf N-myristoylation [2] | EC50 ([1]; read-out: caEC50 24 hours) [µM] | reduction of Arf acylation ([2]; 4 h)
1 | Cc1nccn1CCCCc1ccc(CC(=O)N[C@@H](CO)C(=O)N[C@@H](CCCCN)C(=O)N[C@@H](CC2CCCCC2)C(=O)O)cc1 [Example 2, L-Alanine, 3-cyclohexyl-N-[N^2-[N-[[4-[4-(2-Methyl-1H-imidazol-1-yl)butyl]phenyl]acetyl]-L-seryl]-L-lysyl]-, bis-trifluoroacetate] | 35 | 35 | ~10% | – | –
2 | Cc1nccn1CCCCc1ccc(CC(=O)N[C@H](CO)C(=O)N[C@H](CCCCN)C(=O)N[C@H](CC2CCCCC2)C(=O)O)cc1 [Comparator Compound A, D-Alanine, 3-cyclohexyl-N-[N^2-[N-[[4-[4-(2-methyl-1H-imidazol-1-yl)butyl]phenyl]acetyl]-D-seryl]-D-lysyl]-, bis-trifluoroacetate] | > 400 | – | no detectable reduction | > 400 | no detectable reduction
